Test [1] addresses T1, mouse TGR5 receptor (Mus musculus, UniProt Q80SS6).
T1 construct: host or cells: HEK293-EBNA (293 c18, ATCC CRL10852)
T1 sequence (Q80SS6 1-329): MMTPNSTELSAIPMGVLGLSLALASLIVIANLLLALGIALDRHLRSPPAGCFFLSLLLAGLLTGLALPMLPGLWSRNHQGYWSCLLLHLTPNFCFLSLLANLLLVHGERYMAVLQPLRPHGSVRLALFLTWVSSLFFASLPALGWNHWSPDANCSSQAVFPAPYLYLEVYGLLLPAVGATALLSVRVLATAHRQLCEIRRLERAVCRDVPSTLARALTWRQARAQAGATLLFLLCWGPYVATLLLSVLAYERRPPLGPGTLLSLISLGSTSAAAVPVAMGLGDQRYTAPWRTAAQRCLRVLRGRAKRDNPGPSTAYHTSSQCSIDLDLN
The test is described as follows: Mouse TGR5 HTRF cAMP production assay (HEK293-EBNA cells, Cisbio cAMP HiRange kit). Conditions: HEK293-EBNA cells overexpressing mouse TGR5, HTRF cAMP assay. The class given is cell-based. The procedure:
Mouse TGR5 cAMP Production Assay
Compounds of the present invention were evaluated for their ability to induce cAMP production in HEK-EBNA cells overexpressing the mouse TGR5 receptor. Human embryonic kidney cells (HEK293-EBNA) stably expressing mouse TGR5 receptor were established using the following procedure. Specifically, a commercially obtained gene encoding mouse TGR5 (accession number BC116914) from Thermo Scientific (Waltham, Mass.) was cloned into an episomal expression vector. The resulting expression plasmid was then transfected into 293 c18 (ATCC® CRL10852™) cells, which express the Epstein-Barr virus nuclear antigen EBNA1 and can support the replication of episomal vectors. Selection for the plasmid was maintained with Hygromycin B. Cells were cultured and maintained in DMEM (Sigma; cat #6429) supplemented with 10% Fetal Bovine Serum, 1% penicillin/streptomycin, 2 mM L-alanine L-glutamine (GlutaMax), and 250 μg/mL Hygromycin.
We developed two cAMP production assays.
(ii) HTRF cAMP Production Assay
In this second cAMP production assay, the cAMP production was measured in 384-well low volume plates (Greiner; cat #784075) using the Cisbio™ cAMP HiRange HTRF Assay Kit (CisBio) according to the manufacturer's protocol.
Briefly, compounds were initially diluted in 100% DMSO (12-point serial dilution by half logs) in a 96-well plate and then were further diluted 1:50 in PBS containing 10 mM HEPES. 5 μL were transferred to the 384-well assay plate in duplicate. HEK293-EBNA cells stably overexpressing mouse TGR5 were harvested using non-enzymatic cell dissociation buffer (Sigma), spun down, then resuspended in serum-free DMEM with 500 μM IBMX at a density of 500,000 cells/mL. 5 μL of cell suspension was transferred to each well of the 384-well assay plate already containing compound. The plate was covered and incubated at room temperature for 1 hour. The d2-cAMP and anti-cAMP Ab-cryptate stock solutions were prepared as per kit instructions. Then 5 μL of each conjugate (d2 and cryptate) were added to each well of the assay plate. The plate was covered and incubated at room temperature for one (1) hour. The plate was read on an Envision™ plate reader (PerkinElmer).
(§1) In Table 52, EC50 values for both human and mouse cells were determined according to the TGR5 cAMP assays described above. […]
On the technique in general: TR-FRET usually uses a lanthanide donor and a delayed reading to cut background.

The target of test [2] is T2, human TGR5 receptor (Homo sapiens, UniProt Q8TDU6).
T2 construct: host or cells: CHO-K1 (hTGR5-CHO)
T2 sequence (Q8TDU6 1-330): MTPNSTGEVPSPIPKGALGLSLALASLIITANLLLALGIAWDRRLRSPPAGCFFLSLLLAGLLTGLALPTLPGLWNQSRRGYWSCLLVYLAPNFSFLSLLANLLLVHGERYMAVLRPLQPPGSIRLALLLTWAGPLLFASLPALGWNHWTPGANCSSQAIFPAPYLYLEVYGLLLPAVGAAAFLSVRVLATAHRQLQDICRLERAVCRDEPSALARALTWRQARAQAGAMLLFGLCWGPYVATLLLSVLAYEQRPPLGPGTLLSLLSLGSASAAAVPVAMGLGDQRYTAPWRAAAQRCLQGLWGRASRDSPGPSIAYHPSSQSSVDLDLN
The test is described as follows: Human TGR5 cAMP production assay (hTGR5-CHO cells, DiscoveRx cAMP XS+ kit). The class given is cell-based. The conditions noted are these: luminescent cAMP assay, read-out: Human TGR5 Lum. cAMP Activity (EC50). The procedure:
Human TGR5 cAMP Production Assay
Compounds of the present invention were evaluated for their ability to induce cAMP production using CHO-K1 cells overexpressing the human TGR5 receptor.
CHO-K1 cells stably expressing human TGR5 receptor (accession number NM_001077194.1) (hTGR5) (i.e., hTGR5-CHO cells) were purchased from DiscoveRx Corporation (Fremont, Calif.). hTGR5-CHO cells were grown in Ham's F-12 media supplemented with 10% Fetal Bovine Serum, 1% Penicillin-Streptomycin, 2 mM L-Alanine L-Glutamine (Glutamax), and 800 μg/mL Geneticin selection. The cAMP production assay was performed using DiscoveRx's cAMP XS+ kit (Catalog No. 90-0075XL) following the manufacturer's recommended protocol. Briefly, hTGR5-CHO cells were harvested using non-enzymatic cell dissociation buffer (Sigma-Aldrich, St. Louis, Mo.) and 1×10^6 cells were combined in Phosphate-Buffered Saline (PBS) to a final volume of 496 μL to which 4 μL of 125 mM IBMX (Sigma-Aldrich, St. Louis, Mo.) was added. 500 μL of cAMP antibody solution was added to the harvested cells and incubated at room temperature for 20 min.
Test compounds were serially diluted (half-log dilutions) in DMSO and then further diluted 1:50 in PBS, 10 mM HEPES buffer. 2 μL of serially diluted compound was added to a 384-well low volume plate (Greiner; cat #784075) and centrifuged briefly. 2 μl of the cell/cAMP antibody mixture was then added to each compound-containing well and allowed to incubate at room temperature for one hour. Following incubation, the XS+ kits' ED/Lysis/CL Substrate Working Solution was prepared following the manufacturer's recommended protocol and 4 μL was added to each well of the plate. The plate was then incubated for one hour at room temperature. Following incubation, 4 μL of Enzyme Acceptor reagent was added to the plate and allowed to incubate overnight at room temperature. Luminescent signal was then detected using the Viewlux instrument (Perkin-Elmer, Waltham, Mass.).
Human and Mouse TGR5 cAMP
as §1

Here are results for 13 compounds from patent US10654834B2 (Venenum Biodesign, LLC, priority 2016, dated 2020).

One may read the EC50 as the concentration giving half of the maximal effect.

As for `O=C(NCCc1ccc(C(F)(F)F)cc1)[C@@H]1CCCN(c2cc(N3CCN(C(=O)CO)CC3)nc(C(F)(F)F)n2)C1` [Compound 348, (R)-1-(6-(4-(2-hydroxyacetyl)piperazin-1-yl)-2-(trifluoromethyl)pyrimidin-4-yl)-N-(4-(trifluoromethyl)phenethyl)piperidine-3-carboxamide], the EC50 is less than 0.1 µM in test [1] and 0.1 to 0.999 µM in test [2].
The matching figures for `N#Cc1ccc(CCNC(=O)[C@@H]2CCCN2c2cc(-c3ccc(C(=O)O)s3)nc(C(F)(F)F)n2)cc1` [Compound 181, (S)-5-(6-(2-((4-cyanophenethyl)carbamoyl)pyrrolidin-1-yl)-2-(trifluoromethyl)pyrimidin-4-yl)thiophene-2-carboxylic acid]: less than 0.1 µM and 0.1 to 0.999 µM.
For the compound `CCOC(=O)CCNC(=O)NCCC1CCN(c2cc(N3CC[C@H]3C(=O)NCCc3ccc(C#N)cc3)nc(C(F)(F)F)n2)CC1` [Compound 267, (S)-ethyl 3-(3-(2-(1-(6-(2-((4-cyanophenethyl)carbamoyl)azetidin-1-yl)-2-(trifluoromethyl)pyrimidin-4-yl)piperidin-4-yl)ethyl)ureido)propanoate], the EC50 in test [1] and in test [2] was less than 0.1 µM in each case.
With `O=C(NCCc1ccc(C(F)(F)F)cc1)[C@@H]1CCN1c1cc(N2CCC(CCCC3CCNCC3)CC2)nc(C(F)(F)F)n1` [Compound 275, (S)-1-(6-(4-(3-(piperidin-4-yl)propyl)piperidin-1-yl)-2-(trifluoromethyl)pyrimidin-4-yl)-N-(4-(trifluoromethyl)phenethyl)azetidine-2-carboxamide], the EC50 is 0.1 to 0.999 µM in test [1] and less than 0.1 µM in test [2].
On the same counts, the results for `CN(CC#CCOC1CCN(c2cc(N3CCC[C@H]3C(=O)NCCc3ccc(C#N)cc3)nc(C(F)(F)F)n2)CC1)CCS(=O)(=O)O` [Compound 135, (S)-2-((4-((1-(6-(2-((4-cyanophenethyl)carbamoyl)pyrrolidin-1-yl)-2-(trifluoromethyl)pyrimidin-4-yl)piperidin-4-yl)oxy)but-2-yn-1-yl)(methyl)amino)ethanesulfonic acid] are less than 0.1 µM and 0.1 to 0.999 µM.
The matching figures for `N#Cc1ccc(CCNC(=O)[C@@H]2CCCN2c2cc(N3CCC(CCNC(=O)NCCNC(=O)[C@@H](N)CS(=O)(=O)O)CC3)nc(C(F)(F)F)n2)cc1` [Compound 373, (R)-2-amino-3-((2-(3-(2-(1-(6-((S)-2-((4-cyanophenethyl)carbamoyl)pyrrolidin-1-yl)-2-(trifluoromethyl)pyrimidin-4-yl)piperidin-4-yl)ethyl)ureido)ethyl)amino)-3-oxopropane-1-sulfonic acid]: less than 0.1 µM and less than 0.1 µM.
The matching figures for `O=C(O)CCNC(=O)NCCC1CCN(c2cc(N3CCC[C@H]3C(=O)NCCc3ccc(-c4cccnc4)cc3)nc(C(F)(F)F)n2)CC1` [Compound 377, (S)-3-(3-(2-(1-(6-(2-((4-(pyridin-3-yl)phenethyl)carbamoyl)pyrrolidin-1-yl)-2-(trifluoromethyl)pyrimidin-4-yl)piperidin-4-yl)ethyl)ureido)propanoic acid]: 0.1 to 0.999 µM and 0.1 to 0.999 µM.
As to `O=C(O)CCCC1CCN(c2cc(N3C[C@H](O)C[C@H]3C(=O)NCCc3ccc(C(F)(F)F)cc3)nc(C(F)(F)F)n2)CC1` [Compound 212, 4-(1-(6-((2S,4R)-4-hydroxy-2-((4-(trifluoromethyl)phenethyl)carbamoyl)pyrrolidin-1-yl)-2-(trifluoromethyl)pyrimidin-4-yl)piperidin-4-yl)butanoic acid], the EC50 in test [1] was less than 0.1 µM; in test [2], 0.1 to 0.999 µM.
On the same counts, the results for `N#Cc1ccc(CCNC(=O)[C@@H]2CCCN2c2cc(-c3ccc(COCC(=O)NCS(=O)(=O)O)cc3)cc(C(F)(F)F)n2)cc1` [Compound 209, (S)-(2-((4-(2-(2-((4-cyanophenethyl)carbamoyl)pyrrolidin-1-yl)-6-(trifluoromethyl)pyridin-4-yl)benzyl)oxy)acetamido)methanesulfonic acid] are less than 0.1 µM and less than 0.1 µM.
The matching figures for `CN(CCS(=O)(=O)O)c1c(NCCC2CCN(c3cc(N4CC[C@H]4C(=O)NCCc4ccc(C#N)cc4)nc(C(F)(F)F)n3)CC2)c(=O)c1=O` [Compound 299, (S)-2-((2-((2-(1-(6-(2-((4-cyanophenethyl)carbamoyl)azetidin-1-yl)-2-(trifluoromethyl)pyrimidin-4-yl)piperidin-4-yl)ethyl)amino)-3,4-dioxocyclobut-1-en-1-yl)(methyl)amino)ethanesulfonic acid]: less than 0.1 µM and less than 0.1 µM.
The matching figures for `N#Cc1ccc(CCNC(=O)[C@@H]2CCCN2c2cc(-c3ccc(CN4CCNCC4)cc3)nc(C(F)(F)F)n2)cc1` [Compound 187, (S)-N-(4-cyanophenethyl)-1-(6-(4-(piperazin-1-ylmethyl)phenyl)-2-(trifluoromethyl)pyrimidin-4-yl)pyrrolidine-2-carboxamide]: 0.1 to 0.999 µM and 1 to 30 µM.
Take `CC(C)(C)OC(=O)CCNc1c(NCCC2CCN(c3cc(N4CC[C@H]4C(=O)NCCc4ccc(C#N)cc4)nc(C(F)(F)F)n3)CC2)c(=O)c1=O` [Compound 300, (S)-tert-butyl 3-((2-((2-(1-(6-(2-((4-cyanophenethyl)carbamoyl)azetidin-1-yl)-2-(trifluoromethyl)pyrimidin-4-yl)piperidin-4-yl)ethyl)amino)-3,4-dioxocyclobut-1-en-1-yl)amino)propanoate]: the figures for the EC50 in test [1] and in test [2] were less than 0.1 µM and 0.1 to 0.999 µM, respectively.
On the same counts, the results for `CC1(CO)CCN(C(=O)NCCC2CCN(c3cc(N4CCC[C@H]4C(=O)NCCc4ccc(C#N)cc4)nc(C(F)(F)F)n3)CC2)CC1` [Compound 84, (S)-N-(2-(1-(6-(2-((4-cyanophenethyl)carbamoyl)pyrrolidin-1-yl)-2-(trifluoromethyl)pyrimidin-4-yl)piperidin-4-yl)ethyl)-4-(hydroxymethyl)-4-methylpiperidine-1-carboxamide] are less than 0.1 µM and less than 0.1 µM.
